Data: patent US20080175794A1, “Substituted Pyridazinyl- and Pyrimidinyl-Quinolin-4-Ylamine Analogues” (NEUROGEN CORPORATION, priority 2005, published 2008)
pIC50: −log10 of the molar value.

The compounds below were run against T1, human capsaicin receptor (Homo sapiens, UniProt Q8NER1) (assay: Calcium mobilization assay, determination of antagonist activity (Example 6)). Conditions: Table III; assay provided in Example 6; cells expressing human capsaicin receptor, capsaicin at EC50.
T1 construct: expressed in transfected cells
T1 sequence (Q8NER1 whole entry): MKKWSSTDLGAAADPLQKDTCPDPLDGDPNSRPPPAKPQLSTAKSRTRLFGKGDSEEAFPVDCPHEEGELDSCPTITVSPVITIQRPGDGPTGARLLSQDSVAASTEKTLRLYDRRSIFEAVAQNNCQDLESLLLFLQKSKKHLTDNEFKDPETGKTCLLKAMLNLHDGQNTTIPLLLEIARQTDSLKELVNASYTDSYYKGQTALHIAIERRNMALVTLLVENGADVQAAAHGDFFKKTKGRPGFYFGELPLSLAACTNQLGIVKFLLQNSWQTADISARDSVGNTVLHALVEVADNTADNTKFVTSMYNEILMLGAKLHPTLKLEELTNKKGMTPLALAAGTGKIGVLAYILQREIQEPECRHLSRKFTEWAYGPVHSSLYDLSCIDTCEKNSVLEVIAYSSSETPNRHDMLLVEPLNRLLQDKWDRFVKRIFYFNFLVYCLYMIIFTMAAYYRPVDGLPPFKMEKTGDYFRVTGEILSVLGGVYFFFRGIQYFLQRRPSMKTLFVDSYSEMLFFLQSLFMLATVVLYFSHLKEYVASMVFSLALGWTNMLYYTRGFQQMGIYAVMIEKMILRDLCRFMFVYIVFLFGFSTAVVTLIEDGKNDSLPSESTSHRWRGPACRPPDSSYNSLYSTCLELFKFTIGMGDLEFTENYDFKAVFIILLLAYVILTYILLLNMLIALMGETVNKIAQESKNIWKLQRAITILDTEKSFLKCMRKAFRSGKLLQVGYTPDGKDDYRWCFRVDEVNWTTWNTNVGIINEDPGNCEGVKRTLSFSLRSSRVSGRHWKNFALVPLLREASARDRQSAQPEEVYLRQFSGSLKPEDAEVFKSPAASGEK
Type: cell-based
Description: A cDNA encoding full length human capsaicin receptor (SEQ ID NO:1, 2 or 3 of U.S. Pat. No. 6,482,611) is subcloned in the plasmid pBK-CMV (Stratagene, La Jolla, Calif.) for recombinant expression in mammalian cells.
Human embryonic kidney (HEK293) cells are transfected with the pBK-CMV expression construct encoding the full length human capsaicin receptor using standard methods. The transfected cells are selected over two weeks in media containing G418 (400 μg/ml) to obtain a pool of stably transfected cells. Independent clones are isolated from this pool by limiting dilution to obtain clonal stable cell lines for use in subsequent experiments.
Cells transfected with expression plasmids (as described in Example 4) and thereby expressing human capsaicin receptor are seeded and grown to 70-90% confluency in FALCON black-walled, clear-bottomed 96-well plates (#3904, BECTON-DICKINSON, Franklin Lakes, N.J.). The culture medium is emptied from the 96 well plates and FLUO-3 AM calcium sensitive dye (Molecular Probes, Eugene, Oreg.) is added to each well (dye solution: 1 mg FLUO-3 AM, 440 μL DMSO and 440 μl 20% pluronic acid in DMSO, diluted 1:250 in Krebs-Ringer HEPES (KRH) buffer (25 mM HEPES, […], 0.96 mM NaH2PO4, 1 mM MgSO4, 2 mM CaCl2, 5 mM glucose, 1 mM probenecid, pH 7.4), 50 μl diluted solution per well). Plates are covered with aluminum foil and incubated at 37° C. for 1-2 hours in an environment containing 5% CO2. After the incubation, the dye is emptied from the plates, and the cells are washed once with KRH buffer, and resuspended in KRH buffer.
To measure the ability of a test compound to agonize or antagonize a calcium mobilization response in cells expressing capsaicin receptors to capsaicin or other vanilloid agonist, the EC50 of the agonist capsaicin is first determined. An additional 20 μl of KRH buffer and 1 μl DMSO is added to each well of cells, prepared as described above. 100 μl capsaicin in KRH buffer is automatically transferred by the FLIPR instrument to each well. Capsaicin-induced calcium mobilization is monitored using either FLUOROSKAN ASCENT (Labsystems; Franklin, Mass.) or FLIPR (fluorometric imaging plate reader system; Molecular Devices, Sunnyvale, Calif.) instruments. Data obtained between 30 and 60 seconds after agonist application are used to generate an 8-point concentration response curve, with final capsaicin concentrations of 1 nM to 3 μM. KALEIDAGRAPH software (Synergy Software, Reading, Pa.) is used to fit the data to the equation: […]
Test compounds are dissolved in DMSO, diluted in 20 μl KRH buffer so that the final concentration of test compounds in the assay well is between […] and 5 μM, and added to cells prepared as described above. The 96 well plates containing prepared cells and test compounds are incubated in the dark at room temperature for 0.5 to 6 hours. It is important that the incubation not continue beyond 6 hours. Just prior to determining the fluorescence response, 100 μl capsaicin in KRH buffer at twice the EC50 concentration determined as described above is automatically added by the FLIPR instrument to each well of the 96 well plate for a final sample volume of 200 μl and a final capsaicin concentration equal to the EC50. The final concentration of test compounds in the assay wells is between 1 μM and 5 μM. […] The concentration of antagonist required to provide a 50% decrease, relative to the response observed in the presence of capsaicin and without antagonist, is the IC50 for the antagonist, and is preferably below 1 micromolar, 100 nanomolar, 10 nanomolar or 1 nanomolar.

| pIC50 | SMILES |
| --- | --- |
| > 6.00 | CCC(COC)Nc1cc(C(F)(F)F)c(-c2cnc3c(Nc4ccc(C(F)(F)F)cn4)ccnc3n2)nn1 (stereo not drawn) [Compound 166, 3-[6-{[1-(methoxymethyl)propyl]amino}-4-(trifluoromethyl)pyridazin-3-yl]-N-[5-(trifluoromethyl)pyridin-2-yl]pyrido[2,3-b]pyrazin-8-amine] |
| > 6.00 | CCN(c1cc(C(F)(F)F)c(-c2cnc3c(Nc4ccc(C(F)(F)F)cn4)ccnc3n2)nn1)C(C)C [Compound 128, 3-{6-[ethyl(isopropyl)amino]-4-(trifluoromethyl)pyridazin-3-yl}-N-[5-(trifluoromethyl)pyridin-2-yl]pyrido[2,3-b]pyrazin-8-amine] |
| > 6.00 | COCC(C)Nc1cc(C(F)(F)F)c(-c2cnc3c(Nc4ccc(C(F)(F)F)cn4)ccnc3n2)nn1 (stereo not drawn) [Compound 165, 3-{6-[(2-methoxy-1-methylethyl)amino]-4-(trifluoromethyl)pyridazin-3-yl}-N-[5-(trifluoromethyl)pyridin-2-yl]pyrido[2,3-b]pyrazin-8-amine] |
| > 6.00 | CC1CCN1c1cc(C(F)(F)F)c(-c2cnc3c(Nc4ccc(C(F)(F)F)cn4)ccnc3n2)nn1 (stereo not drawn) [Compound 189, 3-[6-(2-methylazetidin-1-yl)-4-(trifluoromethyl)pyridazin-3-yl]-N-[5-(trifluoromethyl)pyridin-2-yl]pyrido[2,3-b]pyrazin-8-amine] |
| > 6.00 | CN(C)CCN(C)c1cc(C(F)(F)F)c(-c2cnc3c(Nc4ccc(C(F)(F)F)cn4)ccnc3n2)nn1 [Compound 150, N,N,N′-trimethyl-N′-[5-(trifluoromethyl)-6-(8-{[5-(trifluoromethyl)pyridin-2-yl]amino}pyrido[2,3-b]pyrazin-3-yl)pyridazin-3-yl]ethane-1,2-diamine] |
| > 6.00 | CC1(C)CCN1c1cc(C(F)(F)F)c(-c2cnc3c(Nc4ccc(C(F)(F)F)cn4)ccnc3n2)nn1 [Compound 131, 3-[6-(2,2-dimethylazetidin-1-yl)-4-(trifluoromethyl)pyridazin-3-yl]-N-[5-(trifluoromethyl)pyridin-2-yl]pyrido[2,3-b]pyrazin-8-amine] |
| > 6.00 | CN(C)CCCNc1cc(C(F)(F)F)c(-c2cnc3c(Nc4ccc(C(F)(F)F)cn4)ccnc3n2)nn1 [Compound 139, N,N-dimethyl-N′-[5-(trifluoromethyl)-6-(8-{[5-(trifluoromethyl)pyridin-2-yl]amino}pyrido[2,3-b]pyrazin-3-yl)pyridazin-3-yl]propane-1,3-diamine] |
| > 6.00 | CC1CCCN1c1cc(C(F)(F)F)c(-c2cnc3c(Nc4ccc(C(F)(F)F)cn4)ccnc3n2)nn1 (stereo not drawn) [Compound 129, 3-[6-(2-methylpyrrolidin-1-yl)-4-(trifluoromethyl)pyridazin-3-yl]-N-[5-(trifluoromethyl)pyridin-2-yl]pyrido[2,3-b]pyrazin-8-amine] |

Further lines, the compound ahead of its results:

| SMILES | pIC50 |
| --- | --- |
| FC(F)(F)c1ccc(Nc2ccnc3nc(-c4nnc(NCc5ccccn5)cc4C(F)(F)F)cnc23)nc1 [Compound 80, 3-{6-[(pyridin-2-ylmethyl)amino]-4-(trifluoromethyl)pyridazin-3-yl}-N-[5-(trifluoromethyl)pyridin-2-yl]pyrido[2,3-b]pyrazin-8-amine] | > 6.00 |
| OCCCCCNc1cc(C(F)(F)F)c(-c2cnc3c(Nc4ccc(C(F)(F)F)cn4)ccnc3n2)nn1 [Compound 115, 5-{[5-(trifluoromethyl)-6-(8-{[5-(trifluoromethyl)pyridin-2-yl]amino}pyrido[2,3-b]pyrazin-3-yl)pyridazin-3-yl]amino}pentan-1-ol] | > 6.00 |
| CCN(CC)c1cc(C(F)(F)F)c(-c2cnc3c(Nc4ccc(C(F)(F)F)cn4)ccnc3n2)nn1 [Compound 126, 3-[6-(diethylamino)-4-(trifluoromethyl)pyridazin-3-yl]-N-[5-(trifluoromethyl)pyridin-2-yl]pyrido[2,3-b]pyrazin-8-amine] | > 6.00 |
| CCCN(C)c1cc(C(F)(F)F)c(-c2cnc3c(Nc4ccc(C(F)(F)F)cn4)ccnc3n2)nn1 [Compound 121, 3-{6-[methyl(propyl)amino]-4-(trifluoromethyl)pyridazin-3-yl}-N-[5-(trifluoromethyl)pyridin-2-yl]pyrido[2,3-b]pyrazin-8-amine] | > 6.00 |
| CCCCNc1cc(C(F)(F)F)c(-c2cnc3c(Nc4ccc(C(F)(F)F)cn4)ccnc3n2)nn1 [Compound 104, 3-[6-(butylamino)-4-(trifluoromethyl)pyridazin-3-yl]-N-[5-(trifluoromethyl)pyridin-2-yl]pyrido[2,3-b]pyrazin-8-amine] | > 6.00 |
| FC(F)(F)c1ccc(Nc2ccnc3nc(-c4nnc(NC5CCCCC5)cc4C(F)(F)F)cnc23)nc1 [Compound 110, 3-[6-(cyclohexylamino)-4-(trifluoromethyl)pyridazin-3-yl]-N-[5-(trifluoromethyl)pyridin-2-yl]pyrido[2,3-b]pyrazin-8-amine] | > 6.00 |
| CC(=O)c1cc(C(F)(F)F)c(-c2cnc3c(Nc4ccc(C(F)(F)F)cn4)ccnc3n2)nn1 [Compound 68, 1-[5-(trifluoromethyl)-6-(8-{[5-(trifluoromethyl)pyridin-2-yl]amino}pyrido[2,3-b]pyrazin-3-yl)pyridazin-3-yl]ethanone] | > 6.00 |
| CCCOCCNc1cc(C(F)(F)F)c(-c2cnc3c(Nc4ccc(C(F)(F)F)cn4)ccnc3n2)nn1 [Compound 52, 3-[6-[(2-propoxyethyl)amino]-4-(trifluoromethyl)pyridazin-3-yl]-N-[5-(trifluoromethyl)pyridin-2-yl]pyrido[2,3-b]pyrazin-8-amine] | > 6.00 |
| CC(C)Nc1nc(Nc2ccnc3nc(-c4nnccc4C(F)(F)F)cnc23)ccc1C(F)(F)F [Compound 48, N2-isopropyl-3-(trifluoromethyl)-N-~6~-{3-[4-(trifluoromethyl)pyridazin-3-yl]pyrido[2,3-b]pyrazin-8-yl}pyridine-2,6-diamine] | > 6.00 |
| FC(F)(F)c1ccc(Nc2ccnc3nc(-c4nnc(NCCCCN5CCCC5)cc4C(F)(F)F)cnc23)nc1 [Compound 84, 3-{6-[(4-pyrrolidin-1-ylbutyl)amino]-4-(trifluoromethyl)pyridazin-3-yl}-N-[5-(trifluoromethyl)pyridin-2-yl]pyrido[2,3-b]pyrazin-8-amine] | > 6.00 |
| CCNc1cc(C(F)(F)F)c(-c2cnc3c(Nc4ccc(C(F)(F)F)cn4)ccnc3n2)nn1 [Compound 101, 3-[6-(ethylamino)-4-(trifluoromethyl)pyridazin-3-yl]-N-[5-(trifluoromethyl)pyridin-2-yl]pyrido[2,3-b]pyrazin-8-amine] | > 6.00 |
| CN(C)C1CCN(c2cc(C(F)(F)F)c(-c3cnc4c(Nc5ccc(C(F)(F)F)cn5)ccnc4n3)nn2)CC1 [Compound 96, 3-{6-[4-(dimethylamino)piperidin-1-yl]-4-(trifluoromethyl)pyridazin-3-yl}-N-[5-(trifluoromethyl)pyridin-2-yl]pyrido[2,3-b]pyrazin-8-amine] | > 6.00 |
| CCCC(CO)Nc1cc(C(F)(F)F)c(-c2cnc3c(Nc4ccc(C(F)(F)F)cn4)ccnc3n2)nn1 (stereo not drawn) [Compound 119, 2-{[5-(trifluoromethyl)-6-(8-{[5-(trifluoromethyl)pyridin-2-yl]amino}pyrido[2,3-b]pyrazin-3-yl)pyridazin-3-yl]amino}pentan-1-ol] | > 6.00 |
